Drawing on PubChem BioAssay AID1259407 (Chemical Carcinogenesis Research Information System (CCRIS), 2018), this text covers mutagenic call for 2 compounds.

This data set deals with CCRIS mutagenicity, Ames/micronucleus/aberration tests. Put plainly: CCRIS mutagenicity studies.

The source made the active and inactive calls. No rule for the calls is given here.

For the compound `[Cl][Cr]([Cl])[Cl]`, the mutagenic call is “active; positive” (End Point: IN VITRO MICRONUCLEUS, Test System: CHL/IU CELLS, Metabolic Activation: NONE); “active; positive” (Test System: AMES SALMONELLA TYPHIMURIUM, Strain/Indicator: TA94, Metabolic Activation: NONE, Method: STANDARD PLATE); “inactive; negative” (Test System: AMES SALMONELLA TYPHIMURIUM, Strain/Indicator: TA98, Metabolic Activation: HAMSTER, LIVER, S-9, AROCLOR 1254, Method: STANDARD PLATE); “inactive; negative” (Test System: AMES SALMONELLA TYPHIMURIUM, Strain/Indicator: TA98, Metabolic Activation: NONE, Method: PREINCUBATION); “inactive; negative” (Test System: AMES SALMONELLA TYPHIMURIUM, Strain/Indicator: TA98, Metabolic Activation: RAT, LIVER, S-9, AROCLOR 1254, Method: STANDARD PLATE); “inactive; negative” (Test System: AMES SALMONELLA TYPHIMURIUM, Strain/Indicator: TA98, Metabolic Activation: RAT, LIVER, S-9, PHENOBARBITAL AND BETA-NAPHTHOFLAVONE, Method: PREINCUBATION). Further, the mutagenic call (Test System: AMES SALMONELLA TYPHIMURIUM, Strain/Indicator: TA100, Metabolic Activation: HAMSTER, LIVER, S-9, AROCLOR 1254, Method: STANDARD PLATE) was “inactive; negative”; the mutagenic call (Test System: AMES SALMONELLA TYPHIMURIUM, Strain/Indicator: TA100, Metabolic Activation: NONE, Method: PREINCUBATION) was “inactive; negative”; the mutagenic call (Test System: AMES SALMONELLA TYPHIMURIUM, Strain/Indicator: TA100, Metabolic Activation: NONE, Method: STANDARD PLATE) was “inactive; negative”; the mutagenic call (Test System: AMES SALMONELLA TYPHIMURIUM, Strain/Indicator: TA100, Metabolic Activation: RAT, LIVER, S-9, AROCLOR 1254, Method: STANDARD PLATE) was “inactive; negative”; the mutagenic call (Test System: AMES SALMONELLA TYPHIMURIUM, Strain/Indicator: TA100, Metabolic Activation: RAT, LIVER, S-9, PHENOBARBITAL AND BETA-NAPHTHOFLAVONE, Method: PREINCUBATION) is “inactive; negative”; the mutagenic call (Test System: AMES SALMONELLA TYPHIMURIUM, Strain/Indicator: TA102, Metabolic Activation: HAMSTER, LIVER, S-9, AROCLOR 1254, Method: STANDARD PLATE) is “active; positive”. Also, the mutagenic call was “active; positive” (Test System: AMES SALMONELLA TYPHIMURIUM, Strain/Indicator: TA102, Metabolic Activation: RAT, LIVER, S-9, AROCLOR 1254, Method: STANDARD PLATE); “inactive; negative” (Test System: AMES SALMONELLA TYPHIMURIUM, Strain/Indicator: TA1535, Metabolic Activation: HAMSTER, LIVER, S-9, AROCLOR 1254, Method: STANDARD PLATE); “inactive; negative” (Test System: AMES SALMONELLA TYPHIMURIUM, Strain/Indicator: TA1535, Metabolic Activation: NONE, Method: PREINCUBATION); “inactive; negative” (Test System: AMES SALMONELLA TYPHIMURIUM, Strain/Indicator: TA1535, Metabolic Activation: NONE, Method: STANDARD PLATE); “inactive; negative” (Test System: AMES SALMONELLA TYPHIMURIUM, Strain/Indicator: TA1535, Metabolic Activation: RAT, LIVER, S-9, AROCLOR 1254, Method: STANDARD PLATE); “inactive; negative” (Test System: AMES SALMONELLA TYPHIMURIUM, Strain/Indicator: TA1535, Metabolic Activation: RAT, LIVER, S-9, PHENOBARBITAL AND BETA-NAPHTHOFLAVONE, Method: PREINCUBATION). In addition, the mutagenic call reads like this: (Test System: AMES SALMONELLA TYPHIMURIUM, Strain/Indicator: TA1537, Metabolic Activation: HAMSTER, LIVER, S-9, AROCLOR 1254, Method: STANDARD PLATE) “inactive; negative”; (Test System: AMES SALMONELLA TYPHIMURIUM, Strain/Indicator: TA1537, Metabolic Activation: NONE, Method: PREINCUBATION) “inactive; negative”; (Test System: AMES SALMONELLA TYPHIMURIUM, Strain/Indicator: TA1537, Metabolic Activation: NONE, Method: STANDARD PLATE) “inactive; negative”; (Test System: AMES SALMONELLA TYPHIMURIUM, Strain/Indicator: TA1537, Metabolic Activation: RAT, LIVER, S-9, AROCLOR 1254, Method: STANDARD PLATE) “inactive; negative”; (Test System: AMES SALMONELLA TYPHIMURIUM, Strain/Indicator: TA1537, Metabolic Activation: RAT, LIVER, S-9, PHENOBARBITAL AND BETA-NAPHTHOFLAVONE, Method: PREINCUBATION) “inactive; negative”; (Test System: AMES SALMONELLA TYPHIMURIUM, Strain/Indicator: TA1538, Metabolic Activation: NONE, Method: PREINCUBATION) “inactive; negative”. Besides, the mutagenic call (Test System: AMES SALMONELLA TYPHIMURIUM, Strain/Indicator: TA1538, Metabolic Activation: RAT, LIVER, S-9, PHENOBARBITAL AND BETA-NAPHTHOFLAVONE, Method: PREINCUBATION) is “inactive; negative”; the mutagenic call (Test System: CHINESE HAMSTER OVARY CELLS, Strain/Indicator: CHO CELLS (HPRT)/6-THIOGUANINE, Metabolic Activation: NONE, Method: STANDARD PLATE) is “active; positive”; the mutagenic call (Test System: E. COLI, Strain/Indicator: WP2 UVRA, Metabolic Activation: NONE, Method: SPOT TEST) was “inactive; negative”; the mutagenic call (Test System: E. COLI, Strain/Indicator: WP2UVRA, Metabolic Activation: RAT LIVER S-9, PHENOBARBITAL AND BETA-NAPHTHOFLAVONE, Method: PREINCUBATION) is “inactive; negative”; the mutagenic call (Test System: E.COLI, Strain/Indicator: WP2UVRA, Metabolic Activation: NONE, Method: PREINCUBATION) is “inactive; negative”; the mutagenic call (Test System: Mouse lymphoma, Strain/Indicator: L5178Y (tk+/tk-), Metabolic Activation: None, Method: Suspension/plate) was “inactive; negative”. For the same compound, the mutagenic call (Test System: Mouse lymphoma, Strain/Indicator: L5178Y (tk+/tk-), Metabolic Activation: Rat, Liver, S-9, Aroclor 1254, Method: Suspension/plate) is “active; equivocal (previous evaluation positive)”.
For `CC(C)COC(=O)NO`, for the setting “Test System: E. COLI, Strain/Indicator: WP2 UVRA, Metabolic Activation: NONE, Method: FLUCTUATION TEST”, the mutagenic call was “active; positive”.
